What was measured:
[1] = test system: production of CD69 by B lymphocytes in human whole blood; test: CD69 Whole Blood Assay (Example 907); type: cell-based; conditions: Lymphocyte; human whole blood activated with goat F(ab')2 anti-human IgM, 20 hours; percent CD69 positive cells that are also CD20 positive
Text: A CD69 Whole Blood Assay can be conducted on Formula I compounds to determine the ability of compounds to inhibit the production of CD69 by B lymphocytes in human whole blood activated by crosslinking surface IgM with goat F(ab')2 anti-human IgM (Example 907).
Human blood is obtained from healthy volunteers, with the following restrictions: 1 week drug-free, non-smokers. Blood (approximately 20 mls to test 8 compounds) is collected by venipuncture into Vacutainer® (Becton, Dickinson and Co.) tubes with sodium heparin.
Solutions of Formula I compounds at 10 mM in DMSO are diluted 1:10 in 100% DMSO, then are diluted by three-fold serial dilutions in 100% DMSO for a ten point dose-response curve. The compounds are further diluted 1:10 in PBS and then an aliquot of 5.5 µl of each compound is added in duplicate to a 2 ml 96-well plate; 5.5 µl of 10% DMSO in PBS is added as control and no-stimulus wells. Human whole blood - HWB (100 µl) is added to each well. After mixing the plates are incubated at 37 °C, 5% CO2, 100% humidity for 30 minutes. Goat F(ab')2 anti-human IgM (10 µl of a 500 µg/ml solution, 50 µg/ml final) is added to each well (except the no-stimulus wells) with mixing and the plates are incubated for an additional 20 hours. At the end of the 20 hour incubation, samples are incubated with fluorescent labeled antibodies for 30 minutes, at 37 °C, 5% CO2, 100% humidity. Include induced control, unstained and single stains for compensation adjustments and initial voltage settings. Samples are then lysed with PharM Lyse™ (BD Biosciences Pharmingen) according to the manufacturer's instructions. Samples are then transferred to a 96 well plate suitable to be run on the BD Biosciences HTS 96 well system on the LSRII machine. Data acquired and Mean Fluorescence Intensity values were obtained using BD Biosciences DIVA Software. Results are initially analyzed by FACS analysis software (Flow Jo). […] The IC50 values are calculated by Prism version 5, using a nonlinear regression curve fit.

[2] = target: T1, full length human wildtype Btk (Homo sapiens, UniProt Q06187); test: Biochemical Btk Kinase Assay (Example 901); conditions: time-resolved fluorescence, final ATP concentration 40 µM; alternatively Lanthascreen assay, ATP 25 uM
T1 construct: V5 (C); 6xHis (C); made in house; host or cells: Sf9 insect cells (baculovirus, pFastBac)
T1 sequence (Q06187 whole entry): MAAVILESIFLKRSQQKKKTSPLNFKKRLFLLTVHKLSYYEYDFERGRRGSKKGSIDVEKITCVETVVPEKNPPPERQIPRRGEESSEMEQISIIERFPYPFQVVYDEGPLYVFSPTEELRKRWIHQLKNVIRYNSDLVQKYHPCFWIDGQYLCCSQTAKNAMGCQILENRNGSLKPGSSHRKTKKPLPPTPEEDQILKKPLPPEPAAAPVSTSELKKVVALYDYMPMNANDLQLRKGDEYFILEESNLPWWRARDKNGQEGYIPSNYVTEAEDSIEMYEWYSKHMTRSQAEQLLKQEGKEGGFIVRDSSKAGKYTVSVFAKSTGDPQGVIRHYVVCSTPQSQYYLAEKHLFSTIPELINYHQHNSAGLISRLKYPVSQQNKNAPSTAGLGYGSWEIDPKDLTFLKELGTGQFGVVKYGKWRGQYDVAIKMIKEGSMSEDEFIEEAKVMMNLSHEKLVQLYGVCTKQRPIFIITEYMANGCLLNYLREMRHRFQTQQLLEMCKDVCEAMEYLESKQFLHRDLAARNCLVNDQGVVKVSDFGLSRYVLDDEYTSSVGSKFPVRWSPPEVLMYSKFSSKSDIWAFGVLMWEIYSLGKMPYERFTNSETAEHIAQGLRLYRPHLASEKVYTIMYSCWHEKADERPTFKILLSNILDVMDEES
Protocol: Formula I compounds were tested by a standard biochemical Btk Kinase Assay (Example 901). A generalized procedure for a standard biochemical Btk Kinase Assay that can be used to test Formula I compounds is as follows. […] Btk enzyme is prepared as follows: full length human wildtype Btk (accession number NM-000061) with a C-terminal V5 and 6x His tag was subcloned into pFastBac vector for making baculovirus carrying this epitope-tagged Btk. Generation of baculovirus is done based on Invitrogen's instructions detailed in its published protocol "Bac-to-Bac Baculovirus Expression Systems" (Cat. Nos. 10359-016 and 10608-016). Passage 3 virus is used to infect Sf9 cells to overexpress the recombinant Btk protein. The Btk protein is then purified to homogeneity using Ni-NTA column. The purity of the final protein preparation is greater than 95% based on the sensitive Sypro-Ruby staining. A solution of 200 µM ATP is prepared in water and adjusted to pH7.4 with 1N NaOH. A quantity of 1.25 µL of compounds in 5%DMSO is transferred to a 96-well ½ area Costar polystyrene plate. Compounds are tested singly and with an 11-point dose-responsive curve (starting concentration is 10 µM; 1:2 dilution). A quantity of 18.75 µL of master mix minus enzyme (as a negative control) and master mix plus enzyme is transferred to appropriate wells in 96-well ½ area costar polystyrene plate. 5 µL of 200 µM ATP is added to that mixture in the 96-well ½ area Costar polystyrene plate for final ATP concentration of 40 µM. The reaction is allowed to incubate for 1 hour at room temperature. The reaction is stopped with Perkin Elmer 1X detection buffer containing 30 mM EDTA, 20 nM SA-APC, and 1 nM PT66 Ab. The plate is read using time-resolved fluorescence with a Perkin Elmer Envision using excitation filter 330 nm, emission filter 665 nm, and 2nd emission filter 615 nm. IC50 values are subsequently calculated. Alternatively, the Lanthascreen assay can be used to evaluate Btk activity through quantification of its phosphorylated peptide product. The FRET (Fluorescence Resonance Energy Transfer) that occurs between the fluorescein on the peptide product and the terbium on the detection antibody decreases with the addition of inhibitors of Btk that reduce the phosphorylation of the peptide. […] After incubation for 60 minutes at room temperature, the reaction is stopped by the addition of a final concentration of 2 nM Tb-PY20 detection antibody in 60 mM EDTA for 30 minutes at room temperature. Detection is determined on a Perkin Elmer Envision with 340 nm excitation and emission at 495 nm and 520 nm. Exemplary Btk inhibition IC50 values are in Tables and 2.

CD86 surface expression = test: CD86 Inhibition Assay (Example 905), inhibition of B cell activity in total mouse splenocytes; type: cell-based, Balb/c mice; conditions: Splenocyte; total mouse splenocytes stimulated with 15 µg/ml IgM for 24 hr; gated on CD19+/7AAD- population
Protocol: A CD86 Inhibition assay can be conducted on Formula I compounds for the inhibition of B cell activity using total mouse splenocytes purified from spleens of 8-16 week old Balb/c mice (Example 905).
A generalized procedure for a standard assay for the inhibition of B cell activity that can be used to test Formula I compounds is as follows. Total mouse splenocytes are purified from spleens of 8-16 week old Balb/c mice by red blood cell lysis (BD Pharmingen #555899). Testing compounds are diluted to 0.5% DMSO and incubated with 1.25 x 10^6 splenocytes in a final volume of 200 µl in flat clear bottom plates (Falcon 353072) for 60 min at 37°C. Cells are then stimulated with the addition of 15 µg/ml IgM (Jackson ImmunoResearch 115-006-020), and incubated for 24 hr at 37°C, 5% CO2. Following the 24 hr incubation, cells are transferred to conical bottom clear 96-well plates and pelleted by centrifugation at 1200 x g x 5 min. Cells are preblocked by CD16/CD32 (BD Pharmingen #553142), followed by triple staining with CD19-FITC (BD Pharmingen #553785), CD86-PE (BD Pharmingen #553692), and 7AAD (BD Pharmingen #51-68981E). Cells are sorted on a BD FACSCalibur and gated on the CD19^+/7AAD^- population. The levels of CD86 surface expression on the gated population is measured versus test compound concentration. Exemplary results are in Table 3.

IC50 [1] [nM] | EC50 (CD86 surface expression) [nM] | Compound | IC50 [2] [nM]
147 | – | Cn1nc(-c2cccc(N3Cc4cc(C(C)(C)C)sc4C3=O)c2CO)cc(Nc2cc3n(n2)CCN(C2CC2)C3)c1=O [Compound 133, 6-(3-{2-tert-butyl-6-oxo-4H,5H,6H-thieno[2,3-c]pyrrol-5-yl}-2-(hydroxymethyl)phenyl)-4-({5-cyclopropyl4H,5H,6H,7H-pyrazolo[1,5-a]pyrazin-2-yl}amino)-2-methyl-2,3-dihydropyridazin-3-one] | –
410 | 1200 | Cn1nc(-c2ccc(F)c(N3Cc4cc(C(C)(C)C)sc4C3=O)c2CO)cc(Nc2cc(C3CC3)[nH]n2)c1=O [Compound 142, 6-(3-{2-tert-butyl-6-oxo-4H,5H,6H-thieno[2,3-c]pyrrol-5-yl} -4-fluoro-2-(hydroxymethyl)phenyl)-4-[(5-cyclopropyl-1H-pyrazol-3-yl)amino]-2-methyl-2,3-dihydropyridazin-3-one] | –

More lines, now with the values behind:

Compound | IC50 [1] [nM] | EC50 (CD86 surface expression) [nM] | IC50 [2] [nM]
Cc1c(-c2cc(Nc3cc(C4CC4)[nH]n3)c(=O)[nH]n2)cccc1N1Cc2cc(C(C)(C)C)sc2C1=O [Compound 113, 6-(3-{2-tert-butyl-6-oxo-4H,5H,6H-thieno[2,3-c]pyrrol-5-yl}-2-methylphenyl)-4-[(5-cyclopropyl-1H-pyrazol-3-yl)amino]-2,3-dihydropyridazin-3-one] | 213 | – | 4
CC(C)(C)c1cc2c(s1)C(=O)N(c1nc(-c3cc(Nc4cc(C5CC5)[nH]n4)c(=O)[nH]n3)ccc1F)C2 [Compound 116, 6-(6-{2-tert-butyl-6-oxo-4H,5H,6H-thieno[2,3-c]pyrrol-5-yl}-5-fluoropyridin-2-yl)-4-[(5-cyclopropyl-1H-pyrazol-3-yl)amino]-2,3-dihydropyridazin-3-one] | 2500 | – | 35
Cc1c(-c2cc(Nc3cc4n(n3)CCN(C)C4)c(=O)[nH]n2)cc(F)cc1N1Cc2cc(C(C)(C)C)sc2C1=O [Compound 122, 6-(3-{2-tert-butyl-6-oxo-4H,5H,6H-thieno[2,3-c]pyrrol-5-yl}-5-fluoro-2-methylphenyl)-4-({5-methyl-4H,5H,6H,7H-pyrazolo[1,5-a]pyrazin-2-yl}amino)-2,3-dihydropyridazin-3-one] | 101 | 211 | –

— patent EP2611798B1, “PYRIDAZINONES, METHOD OF MAKING, AND METHOD OF USE THEREOF” (Gilead Connecticut, Inc., priority 2010, dated 2012)
